Data on 1 substance can be found in patent US20180052105A1, “SULFANE SULFUR-SELECTIVE FLUORESCENT PROBE” (The University of Tokyo, priority 2015, published 2018).

Assay [1] in a line: Absorption and fluorescence spectra of the probe after addition of Na2S4 in buffer. The note with it: 1 μM probe, 0.1 M sodium phosphate buffer pH 7.4, 300 μM GSH. The protocol:
Na2S4 was added to compound 8 synthesized as described above, and the absorption spectrum (UV-1650PC, Shimadzu) and fluorescence spectrum (F-4500, Hitachi) were measured.
(§1) The excitation wavelength was 470 nm.
Na2S4 was added to the synthesized compound a1, compound a2, and compound 25, which was obtained by deprotecting compound a4, and the absorption and fluorescence spectra were measured.

The test system of another assay is cells. Put plainly: Localization in cells, co-staining with Lysotracker or Mitotracker. The format is cell-based. As to the method:
The localization in cells was studied using compound a3. […] The cells were incubated for one hour by 10 μM of compound a3 and 50 nM of Lysotracker Deep red or 200 nM of Mitotracker Deep red in DMEM (containing 0.03% Purulonic and 0.1% DMSO as a co-solvent). Ex/Em=488 nm (laser intensity 20%)/500-540 nm (PMT1000) and 650 nm/670-700 nm (PMT600)

A short description of assay [2]: Selectivity with H2S (addition of NaHS). Particulars: 0.1 μm of SSip-1, pH 7.4, 300 μM GSH, 50 μM NaHS, excitation 470 nm.
From the text: as §1

Assay [3] is described as follows: Reversibility of SSip-1 (in vitro assay in the presence of 5 mM of GSH). Particulars: 1 μM probe, pH 7.4, 5 mM GSH. As to the method: Reversibility of SSip-1 (In Vitro Assay in the Presence of 5 mM of GSH)
The existence of a response to sulfane sulfur was studied in the presence of 5 mM of GSH, which is the GSH concentration in cells (FIG. 4).
as §1

The next assay deals with A549 cells. Put plainly: Live cell imaging (confocal microscope) with Na2S4 added. The format is cell-based. The protocol: The SSip-1 DA was introduced into A549 cells, and 500 μM of Na2S4 was added outside the cells under a microscope. The A549 cells were incubated for three hours by 10 μM of SSip-1 DA (containing 0.0003% Purulonic and 1% DMSO as a co-solvent). The excitation wavelength was 488 nm, and the emission wavelengths were 500-570 nm and 590-650 nm. […]

Where [4] appears, read: A549 cells incubated 3 h with 10 μM SSip-1 DA, 500 μM Na2S4 added, excitation 488 nm.

As for SSip-1, in assay [1] (after 50 μM Na2S4), the “change in absorbance on the rhodamine side” value is “decrease in absorbance on the rhodamine side”. Moreover, in assay [1] (after 50 μM Na2S4, excitation 470 nm), the “rise in fluorescence intensity” value is recorded as “approximately 10 fold”. Moreover, in the assay on cells (cells incubated 1 h with 10 μM compound a3 and 50 nM Lysotracker Deep red or 200 nM Mitotracker Deep red in DMEM), the “merging with Lysotracker and Mitotracker” value is “did not merge with Lysotracker and Mitotracker”. For the same substance, in the assay on cells (in comparison to the localization when only SSip-1 was loaded), the localization in cells result was “localized in the mitochondria”. Also, in assay [2], the “rise in fluorescence intensity with H2S donor” value is on record as “virtually no rise in fluorescence intensity”. Besides, the “fluorescence after addition of Na2S4” value in assay [3] (50 μM Na2S4, excitation 470 nm) is given as “the fluorescence rose after addition of Na2S4”. For the same substance, in assay [3] (Na2S4 added again), the “reversibility (fluorescence on repeated Na2S4 addition)” value is reported as “showing reversibility”. For the same substance, in the assay on A549 cells (setting [4]), the “intensity of the fluorescein-derived fluorescence wavelength region (500-570 nm)” value is reported as “increased” and the “intensity of the rhodamine-derived fluorescence wavelength region (590-650 nm)” value was “decreased slightly”. Besides, the “time for fluorescence to decrease after washout” value with A549 cells (A549 live cells, after washout of 250 μM Na2S4) is “about 20 minutes”. Moreover, the “time for fluorescence to rise after Na2S4 addition” value in the assay on A549 cells (A549 live cells, repeated addition of 250 μM Na2S4) is “within one minute”.
